We go through one compound from patent US8022036B2, “Use of thymosin alpha 1 for the treatment of immunological diseases” (Sigma-Tau Industrie Farmaceutiche Riunite S.p.A., priority 2006, dated 2011).

The test system of one experiment is splenic CD4+ T cells. As to the kind of experiment: Th1/T reg priming in vitro of splenic CD4+ T cells by Aspergillus-pulsed DCs (ELISPOT, flow cytometry). Format: cell-based, mouse. On the procedure:
IDO expression and functional activity were assessed as described in Nat. Immunol. 2002; 3:1097-1101. Generation, purification and activity of T reg cells Splenic CD4+ T-cells were cocultured with conidia-pulsed DCs for 5 days […] before flow cytometry or ELISPOT assay. 1-MT (Sigma-Aldrich) was used at 2 μM. CD4+CD25+ and CD4+CD25− cells (>90% pure on FACS analysis) were separated by magnetic cell sorting from lung and TLN (J. Immunol. 2006; 176:1712-1723). For T reg cell inhibition, 5×10^4 TLN T reg cells were added to 3×10^5 CD4+CD25− cells, both from transplanted mice, stimulated with 3×10^4 autologous Aspergillus conidia-pulsed spDCs or with or 1.5×10^5 allogeneic spDCs from naïve donor mice for five days before H^3-thymidine labeling. Purified peritoneal CD 11b+Gr−1+PMN (>98% pure on FACS analysis) (2×10^6) were exposed to resting conidia in the presence of 4×10^5 CD4+CD25+ for 60 min for oxidant production or 24 hours for cytokine production (J. Immunol. 2006; 176:1712-1723).
(§1) Cytokine content was assessed by enzyme-linked immunosorbent assays (Endogen Human Elisa Kits, R&D Systems and Euroclone, Milan, Italy). AID EliSpot assay kits (Amplimedical, Buttigliera Alta, Turin, Italy) were used on purified splenic CD4+ Tcells cocultured with conidia-pulsed DCs for 5 days to enumerate cytokine-producing cells (Blood. 2003; 102:3807-3814). 1-MT was used at 2 μM.
(A) Frequency of IFN-γ-/IL-10-producing splenic CD4+ T cells activated by Aspergillus-pulsed Thymosin alpha 1-treated GM-DCs or FL-DCs. 1-MT was present in selected cultures. Plates were read with the AID-EliSpot Reader System (Amplimedical). Values are means±SE per 10^6 cells of samples from 3-5 experiments, calculated using replicates of serial twofold dilutions of cells. (*) P<0.05, conidia-exposed versus unexposed cells; (**) P<0.05, thymosin-exposed versus unexposed cells.
(B) Phenotypic analysis of CD4+ cells cultured alone (−) or as in (A). Numbers represent the percentage of double positive cells.

The next experiment concerns GM-DCs or FL-DCs. As to the kind of experiment: Cytokine production (ELISA) by murine GM-DCs or FL-DCs with Aspergillus conidia. The conditions noted are these: 1-MT added at 2 μM. The class given is cell-based, mouse.
Text: GM-DCs or FL-DCs were obtained from purified CD14+ monocytes from healthy donors or transplanted patients (1 month post-HSCT) cultured in Iscove's modified medium for 7-9 days, in the presence of rGM-CSF (Schering-Plough, Milan, Italy) and rIL-4 (Peprotech, Inalco, Milan, Italy) or FLT3-L (Immunex Corporation, Seattle, Wash.) (Blood. 2004; 103:4232-4239). DC recovery was between 20-30% reduced in cultures from transplanted patients. Murine GM-DCs or FL-DCs were obtained from bone marrow cells for 7-9 days, as described (Blood. 2004; 103:4232-4239). Thymosin alpha 1 and sThymosin alpha 1 were added to the cultures at 20 ng/mL. DCs (>99% CD11c+ consisting of 90-95% CD8-, 5-10% CD8+, and 1-5% B220+ cells) were purified from spleens (spDCs) by magnetic-activated sorting using CD11c MicroBeads and MidiMacs (Miltenyi Biotech). DC populations were further separated into CD8−, CD8+ and B220+ fractions by means of CD8 or B220 MicroBeads (Miltenyi Biotech). DCs were pulsed in serum-free Iscove medium for 24 hours with live unopsonized Aspergillus conidia or Zymosan from Saccharomyces cerevisiae (Sigma) or CpG-ODN 2006 as described.7 Phagocytosis was done as described (Blood. 2004; 103:4232-4239). Photographs were taken using a high Resolution Microscopy Color Camera AxioCam, using the AxioVision Software Rel. 3.1 (Carl Zeiss, Milan, Italy).
as §1
(B) Cytokine production (ELISA) by GM-DCs or FL-DCs cultured in serum-free medium (1×10^6 cells/mL) with unopsonized Aspergillus conidia (5×10^5/mL) for 24 hours. The IDO inhibitor 1-MT was added at 2 μM. Data are aggregated results from three independent experiments. The detection limits (pg/mL) of the assays were <16 for IL-12p70 and <12 for IL-10.

As for `Cn1cc(CC(N)C(=O)O)c2ccccc21` (racemic) [1-MT, 1-methyl-DL-tryptophan], the “expansion of Foxp3+CTLA4+CD25+ T cells co-cultured with FL-DCs” value in the experiment on splenic CD4+ T cells (1-MT) is recorded as “appeared to interfere with the expansion”. Moreover, in the experiment on splenic CD4+ T cells (IDO blockade, 1-MT 2 μM), the IFN-γ-producing cells result is recorded as “had no effect” and the “activation of IL-10-producing CD4+ cells” value was “prevented activation”. In addition, the “IL-10 production by DCs in response to Thymosin alpha 1” value in the experiment with GM-DCs or FL-DCs is “blocked”.
